Results on five substances are retold here after publication PMC7224568 (PLoS Pathogens, 2020).

Assay [1] concerns the target soluble P14 TCR (mouse). Nature of the assay: ITC.
In assay [2] the target is soluble P14 TCR (mouse). Nature of the assay: SPR.
Assay [3] deals with P14 T cells. Format: cell-based, mouse.
Assay [4] concerns P14 T cells. Format: cell-based, mouse. The source holds these as a separate data set.
Assay [5] relates to P14 T cells. The format is cell-based, mouse. The source holds these as a separate data set.
A further assay relates to H-2D^b (pMHC complex). Format: binding, mouse.
Assay [6] concerns soluble TCR P14. The format is binding, mouse.
In assay [7] the test system is soluble TCR P14. The format is binding, mouse. This is another data set of the same source.
Assay [8] relates to P14 T cells. Format: cell-based, mouse. The source holds these as a separate data set.
For assay [9], the system named is P14 T cells. The format is cell-based, mouse. The source holds these as a separate data set.
The test system of a further assay is TCR P14. The settings on record: cited from earlier work.
Another assay deals with T cell clone YF.F3. The settings on record: cited from earlier work.

In general, Kd refers to the concentration at which binding is half-saturated. A lower Kd goes with a tighter complex.

“Also recorded” adds a separate entry of the source.

In the assay with soluble P14 TCR (mouse) [1], “H-2D^b/gp33 (from UniProt P01887 21-119) (peptide-MHC)” gave a Kd of 5.8 µM and a dH of -10.2 kcal/mol. The substance also returned a Kd in the assay with soluble P14 TCR (mouse) [2] of 8.6 µM.
KAPFNFATM [Peptide V3P_Y4F]: the “tetramer recognition by LCMV-activated P14 T cells (in words)” value with P14 T cells [3] is “a significant amount of the activated P14 T cells recognized the H-2D^b/V3P_Y4F complex”. In the assay on P14 T cells [4], the “TNF and IFNγ production by LCMV-activated P14 T cells (in words)” value is “produced TNF and IFNγ”.
As to KAPYNFATM [Peptide V3P], the “TNF and IFNγ production by P14 T cells (in words)” value in the assay on P14 T cells [5] was “induced significant production of TNF and IFNγ”. For the same substance, in the assay with H-2D^b (pMHC complex), the “pMHC complex thermal stability (in words)” value was “consistent increase in pMHC complex thermal stability”. In addition, in the assay on H-2D^b (pMHC complex) (pH 7.5), the “Tm (50% protein denaturation), in Fig 1A” value stood at 57.3 °C and the “Tm (temperature with 50% pMHC denaturation)” value is reported as 57.3±0.4 C. In the assay on soluble TCR P14 [6], the “P14 TCR binding to pMHC (in words)” value is “significantly higher binding affinity of soluble P14 TCR to H-2D^b/V3P compared to H-2D^b/gp33”. Also, the “thermodynamics of P14 binding (in words)” value in the assay with soluble TCR P14 [7] was “mainly enthalpy-driven with almost null contribution of entropy; also recorded: the energy required for P14 recognition of V3P is reduced compared to gp33; also recorded: reduced unfavorable entropic contribution”. In addition, in the assay on soluble TCR P14 [7] (pH 7.4), the TΔS is -0.5 ± 0.3 kcal/mol and the ΔH was -8.5 ± 0.5 kcal/mol. The “CD107a expression (degranulation) of P14 T cells (in words)” value in the assay on P14 T cells [8] was “induced significant production of TNF and IFNγ, as well as CD107a expression”. In the assay on P14 T cells [9], the “P14 TCR down-regulation / internalization (in words)” value was “equaled or increased TCR internalization compared to gp33”.
As for KAVANFATM [Peptide Y4A], the “agonist class (in words)” value in the assay with TCR P14 is given as “semi-agonist”.
For KAVYNFATM [gp33, reference compound], in the assay on T cell clone YF.F3, the “IFNγ production by clone YF.F3 (in words)” value is “did not produce high amounts IFNγ against gp33” and the “killing of peptide-presenting targets by clone YF.F3 (in words)” value was “killed efficiently targets presenting gp33”. In the assay with P14 T cells [5], the “TNF and IFNγ production by P14 T cells (in words)” value was “induced significant production of TNF and IFNγ”. Moreover, the “pMHC complex thermal stability (in words)” value in the assay with H-2D^b (pMHC complex) is given as “equivalent thermal stability”. Further, the “Tm (50% protein denaturation), in Fig 1A” value with H-2D^b (pMHC complex) (pH 7.5) stood at 53.7 °C. Besides, in the assay with soluble TCR P14 [7], the “thermodynamics of P14 binding (in words)” value was “entropically unfavorable”. Besides, the “CD107a expression (degranulation) of P14 T cells (in words)” value in the assay on P14 T cells [8] is “induced significant production of TNF and IFNγ, as well as CD107a expression”. The “TNF and IFNγ production by LCMV-activated P14 T cells (in words)” value with P14 T cells [4] is “produced TNF and IFNγ”. For the same substance, the “P14 TCR down-regulation / internalization (in words)” value with P14 T cells [9] is reported as “induced significant TCR down-regulation”.
